{"source": "paper PMC8198181", "about": "“Evaluation of Substituted N-Phenylpiperazine Analogs as D3 vs. D2 Dopamine Receptor Subtype Selective Ligands” (Molecules, 2021)", "key": {"D3 dopamine receptor": {"molecular_target": "D3 dopamine receptor (Homo sapiens, UniProt P35462)", "sequence (P35462 whole entry)": "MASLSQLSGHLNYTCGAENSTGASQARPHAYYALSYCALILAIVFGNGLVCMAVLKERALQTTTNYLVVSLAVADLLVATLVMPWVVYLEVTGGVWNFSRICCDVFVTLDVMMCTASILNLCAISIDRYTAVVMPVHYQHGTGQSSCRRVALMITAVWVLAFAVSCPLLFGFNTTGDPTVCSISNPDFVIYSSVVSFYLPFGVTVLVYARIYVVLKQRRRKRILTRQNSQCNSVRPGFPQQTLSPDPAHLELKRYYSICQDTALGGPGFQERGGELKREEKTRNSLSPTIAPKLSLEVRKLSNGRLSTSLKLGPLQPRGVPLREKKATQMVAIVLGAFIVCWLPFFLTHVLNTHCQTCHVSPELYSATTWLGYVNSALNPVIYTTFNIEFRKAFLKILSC", "assay": "Forskolin-dependent adenylyl cyclase inhibition assay (cAMP-Glo, HEK cells)", "format": "cell-based", "parameters": "expressed in transfected cells; host or cells: HEK293", "details": "human D3, test compound at 10x Ki, normalized to quinpirole 10,000 nM", "protocol": "Quinpirole was used as a reference prototypic full agonist and haloperidol was used as a reference prototypic antagonist.\nThe forskolin-dependent adenylyl cyclase inhibition assay was performed using a cAMP-Glo Assay kit (Promega). For this assay cAMP stimulates protein kinase A (PKA) activity, which leads to a decrease in ATP levels and a decrease in the luciferase-coupled production of light. This is a 96 well plate assay using HEK cells stably transfected to express the human D3 dopamine receptor (10,000 cells/well/0.1 mL complete media). After removing media and rinsing with phosphate buffered saline, cells were incubated with 20 μL of forskolin (6000 nM) and test compound or vehicle. […] After cells, test compound (or vehicle) and forskolin (or vehicle) were incubated for 15 min, cells were lysed using 20 μL lysis buffer (provided with the kit) and mixed for 15 min at room temperature. A cAMP Detection Solution (40 μL) was added to each well, gently mixed for 60 s and incubated at room temperature for 20 min. The Kinase-Glo Solution was added (40 μL) to terminate the PKA reaction. The reaction mixture was gently mixed for 60 s and then incubated at room temperature for 10 min. The remaining ATP was detected via a luciferase reaction. The plates were read using an Enspire Alpha 2390 Multilabel Reader/Luminometer. Haloperidol (200 nM) and quinpirole (10,000 nM) was used as a prototypic reference antagonist and full agonist, respectively.\nFigure 3 Comparison of the Efficacy of Phenylthiophene Analogs for Adenylyl Cyclase Inhibition and β-Arrestin Binding at Human D3 Dopamine Receptors. […] Values were normalized to reference full agonist quinpirole (10,000 nM)."}, "[1]": {"test_system": "unilateral 6-hydroxydopamine lesioned (hemiparkinsonian) rats", "assay": "L-dopa-dependent abnormal involuntary movement (AIM) inhibition in hemiparkinsonian rats", "format": "in vivo, rat", "details": "unilaterally lesioned male rats, 10 mg/kg, L-dopa and benserazide 8 mg/kg each", "protocol": "First, we have previously published that D3 receptor selective compounds could attenuate a hallucinogen-dependent head twitch response (HTR) in male DBA/2J mice. […] Second, we previously reported that D3 vs. D2 dopamine receptor subtype selective ligands could attenuate L-dopa dependent abnormal involuntary movement (AIM) scores in unilaterally lesioned (hemiparkinsonian) male rats, which is a model for L-dopa-Induced Dyskinesia (LID). […]\nAIMs ratings were performed as previously described. The severity of the AIMs was quantified using lesioned rats that were observed individually in their home cages at 15 min intervals, starting 15 min after the injection of L-dopa for approximately 2 h. The AIMs were scored in four categories: (1) axial AIMs, including dystonic or choreiform torsion of the trunk and neck towards the side contralateral to the lesion; (2) limb AIMs, including jerky and/or dystonic movements of the forelimb contralateral to the lesion; (3) orolingual AIMs, including twitching of orofacial muscles with empty masticatory movements and protrusion of the tongue towards the side contralateral to the lesion and (4) locomotive AIMs, including increased locomotion with contralateral side bias. […]\nThe effect of Group was assessed using two-way analysis of variance (ANOVA) with time as the repeated measure. […]"}}, "data": [{"smiles": "O=C(NCCCCN1CCN(c2ccccc2F)CC1)c1ccc(-c2ccsc2)cc1", "note": "[Compound 6a]", "values": [{"measurement": "efficacy in adenylyl cyclase inhibition assay", "setting": "D3 dopamine receptor", "result": "weak partial agonists"}, {"measurement": "L-dopa dependent AIM scores", "setting": "[1]", "result": "attenuate the AIM scores"}]}]}
